What is called inhibition is the relative decrease from the control value, in per cent.

What all share (type): in vivo
The test system of test [1] is Annual bluegrass. Put plainly: Pre-emergence herbicide test. To be noted: read-out: % plant inhibition (Anbg); for inhibition at 11210 g/ha: 11.21 kg/ha. As to the method: (§1) The tests for pre-emergence herbicide activity are conducted as follows:
(§2) Topsoil is placed in an aluminum pan and compacted to a depth of 0.95 to 1.27 cm from the top of the pan. On the top of the soil is placed a predetermined number of seeds of each of several monocotyledonous and dicotyledonous annual plant species and/or vegetative propagules of various perennial plant species. A known amount of the active ingredient dissolved or suspended in an organic solvent, e.g., acetone, or water as carrier is then applied directly to the seed bed, which is then covered with a layer of untreated topsoil to level fill the pan. After treatment, the pans are moved to a greenhouse bench where they are watered from below as needed to give adequate moisture for germination and growth.
(§3) Approximately 10-14 days (usually 11 days) after seeding and treating, the pans are observed and the results (% inhibition) are recorded.
(§4) Tables 7 and 7A below summarize the results of the pre-emergence herbicidal activity tests of compounds of this invention in weeds. The herbicidal rating shown in these tables is the percent inhibition of each plant species. The plant species usually regarded as weeds which are utilized in one set of tests, the data for which are shown in the tables, are identified by letter headings above the columns in accordance with the following legend: […]

Test [2] has as its system Barnyardgrass. Put plainly: Pre-emergence herbicide test. To be noted: Echinochloa crus-galli, read-out: % plant inhibition (Bygr); for inhibition at 11210 g/ha: 11.21 kg/ha. The protocol:
as §1, §2, §3, §4

Test [3] has as its system Cocklebur. Put plainly: Pre-emergence herbicide test. To be noted: Xanthium strumarium, read-out: % plant inhibition (Cobu); for inhibition at 11210 g/ha: 11.21 kg/ha. As to the method:
as §1, §2, §3, §4

Test [4] has as its system Downy Brome. Put plainly: Pre-emergence herbicide test. The note with it: Bromus tectorum, read-out: % plant inhibition (Dobr); for inhibition at 11210 g/ha: 11.21 kg/ha. The protocol: as §1, §2, §3, §4
Test [5] concerns Morningglory. Put plainly: Pre-emergence herbicide test. The note with it: Ipomoea, read-out: % plant inhibition (Mogl); for inhibition at 11210 g/ha: 11.21 kg/ha. The protocol: as §1, §2, §3, §4
Test [6] relates to Seedling johnsongrass. Kind of test: Pre-emergence herbicide test. To be noted: Sorghum halepense, read-out: % plant inhibition (Sejg); for inhibition at 11210 g/ha: 11.21 kg/ha. As to the method:
as §1, §2, §3, §4

Test [7] has as its system Velvetleaf. Put plainly: Pre-emergence herbicide test. To be noted: Abutilon theophrasti, read-out: % plant inhibition (Vele); for inhibition at 11210 g/ha: 11.21 kg/ha. As to the method: as §1, §2, §3, §4
Test [8] concerns Wild buckwheat. Kind of test: Pre-emergence herbicide test. The note with it: Fallopia convolvulus, read-out: % plant inhibition (Wibw); for inhibition at 11210 g/ha: 11.21 kg/ha. As to the method:
as §1, §2, §3, §4

The subject of test [9] is Yellow nutsedge. Kind of test: Pre-emergence herbicide test. To be noted: Cyperus, read-out: % plant inhibition (Yens); for inhibition at 11210 g/ha: 11.21 kg/ha. The protocol:
as §1, §2, §3, §4

Test [10] relates to Annual bluegrass. Put plainly: Post-emergence herbicide test. To be noted: 11.21 kg/ha, read-out: % plant inhibition (Anbg). The source says: (§5) Topsoil is placed in aluminum pans having holes in the bottom and compacted to a depth of 0.95 to 1.27 cm from the top of the pan. A predetermined number of seeds of each of several dicotyledonous and monocotyledonous annual plant species and/or vegetative propagules for the perennial plant species are placed on the soil and pressed into the soil surface. The seeds and/or vegetative propagules are covered with soil and leveled. The pans are then placed on a bench in the greenhouse and watered from below as needed. After the plants reach the desired age (two to three weeks), each pan, is removed individually to a spraying chamber and sprayed by means of an atomizer, operating at a spray pressure of 170.3 kPa (10 psig) at the application rates noted. In the spray solution is an amount of an emulsifying agent mixture to give a spray solution or suspension which contains about 0.4% by volume of the emulsifier. The spray solution or suspension contains a sufficient amount of the candidate chemical in order to give application rates of the active ingredient corresponding to those shown in Tables 8 and 8A, while applying a total amount of solution or suspension equivalent to 1870 L/Ha (200 gallons/acre). The pans were returned to the greenhouse and watered as before and the injury to the plants as compared to the control is observed at approximately 10-14 days (usually 11 days) and in some instances observed again at 24-28 days (usually 25 days) after spraying. The post-emergent herbicidal activity shown in these tables is the percent inhibition of each plant species.

The test system of test [11] is Barnyardgrass. Kind of test: Post-emergence herbicide test. The note with it: Echinochloa crus-galli, 11.21 kg/ha, read-out: % plant inhibition (Bygr).
Text: as §5

Test [12] relates to Cocklebur. Kind of test: Post-emergence herbicide test. The note with it: for inhibition at 11210 g/ha: Xanthium strumarium, 11.21 kg/ha, read-out: % plant inhibition (Cobu).
Text: as §5

In test [13] the test system is Downy Brome. Kind of test: Post-emergence herbicide test. To be noted: Bromus tectorum, 11.21 kg/ha, read-out: % plant inhibition (Dobr).
Text: as §5

Test [14] relates to Indian Mustard. Kind of test: Post-emergence herbicide test. To be noted: Brassica juncea, 11.21 kg/ha, read-out: % plant inhibition (Inmu).
Text: as §5

Test [15] relates to Morningglory. Put plainly: Post-emergence herbicide test. To be noted: for inhibition at 11210 g/ha: 11.21 kg/ha.
Text: as §5

The test system of test [16] is Seedling johnsongrass. Kind of test: Post-emergence herbicide test. To be noted: Sorghum halepense, 11.21 kg/ha, read-out: % plant inhibition (Sejg).
Text: as §5

Test [17] concerns Velvetleaf. Put plainly: Post-emergence herbicide test. The note with it: for inhibition at 11210 g/ha: Abutilon theophrasti, 11.21 kg/ha, read-out: % plant inhibition (Vele).
Text: as §5

Test [18] deals with Wild buckwheat. Put plainly: Post-emergence herbicide test. The note with it: Fallopia convolvulus, 11.21 kg/ha, read-out: % plant inhibition (Wibw).
Text: as §5

For test [19], the system named is Yellow nutsedge. Kind of test: Post-emergence herbicide test. The note with it: Cyperus, read-out: % plant inhibition (Yens); for inhibition at 11210 g/ha: 11.21 kg/ha.
Text: as §5

The test system of test [20] is Indian Mustard. Kind of test: Pre-emergence herbicide test. To be noted: Brassica juncea, read-out: % plant inhibition (Inmu); for inhibition at 11210 g/ha: 11.21 kg/ha. The protocol: as §1, §2, §3, §4
Where [21] appears, read: Ipomoea, read-out: % plant inhibition (Mogl).

SMILES strings stand for the structures. Several values for one entry are separate records, joined by “and”; a condition that tells them apart may be missing. Equal values may be shown once.

In the case of `Cn1nc(C(F)(F)F)c(Cl)c1-c1ccc([N+](=O)[O-])cc1` [Compound 65], the inhibition at 11210 g/ha was 70% with Annual bluegrass [1]; 30% in the test with Barnyardgrass [2]; 0% in the test on Cocklebur [3]; 0% with Downy Brome [4]; 20% with Morningglory [5]; 70% in the test with Seedling johnsongrass [6]. For the same compound, the inhibition at 11210 g/ha in the test on Velvetleaf [7] stood at 90%; in the test on Wild buckwheat [8] it was 80%; in the test on Yellow nutsedge [9] it was 0%; in the test on Annual bluegrass [10], 0%; with Barnyardgrass [11], 70%; with Cocklebur [12] it was 40%. Also, the inhibition at 11210 g/ha amounted to 10% with Downy Brome [13]; 30% with Indian Mustard [14]; 50% with Morningglory [15] (setting [21]); 50% in the test with Seedling johnsongrass [16]; 70% with Velvetleaf [17]; 70% in the test on Wild buckwheat [18]. In addition, the inhibition at 11210 g/ha with Yellow nutsedge [19] worked out at 0%.
For the compound `Cn1nc(C(F)(F)F)c(Cl)c1-c1cc(F)c([N+](=O)[O-])cc1F` [Compound 70], the inhibition at 11210 g/ha with Annual bluegrass [1] was found to be 40%; in the test on Barnyardgrass [2], 40%; in the test with Cocklebur [3] it was 20%; in the test on Downy Brome [4], 20%; with Indian Mustard [20] it was 80%; with Morningglory [5], 80%. Moreover, the inhibition at 11210 g/ha in the test on Seedling johnsongrass [6] came out at 80%; in the test on Velvetleaf [7] it was 90%; with Wild buckwheat [8], 80%; in the test on Yellow nutsedge [9], 0%; with Annual bluegrass [10] it was 10%; with Barnyardgrass [11], 40%. The inhibition at 11210 g/ha in the test on Cocklebur [12] stood at 30%; with Downy Brome [13] it was 10%; with Indian Mustard [14], 20%; in the test on Morningglory [15] (setting [21]), 40%; in the test on Seedling johnsongrass [16], 10%; with Velvetleaf [17], 50%. The inhibition at 11210 g/ha in the test with Yellow nutsedge [19] is 0%.
For `Cn1nc(C(F)(F)F)c(Cl)c1-c1cc(F)c(Cl)cc1Cl` [Compound 80], the inhibition at 11210 g/ha in the test with Annual bluegrass [1] turned out to be 90%; in the test on Barnyardgrass [2], 70%; in the test on Cocklebur [3], 60%; in the test with Downy Brome [4], 70%; in the test on Indian Mustard [20] it was 80%; with Morningglory [5], 60%. Further, the inhibition at 11210 g/ha in the test on Seedling johnsongrass [6] turned out to be 80%; in the test with Velvetleaf [7], 100%; with Wild buckwheat [8], 90%; in the test with Yellow nutsedge [9], 0%; in the test with Annual bluegrass [10], 0%; in the test on Barnyardgrass [11], 0%. For the same compound, the inhibition at 11210 g/ha was found to be 10% in the test with Cocklebur [12]; 0% with Downy Brome [13]; 0% in the test with Indian Mustard [14]; 10% with Morningglory [15] (setting [21]); 0% with Seedling johnsongrass [16]; 60% in the test with Velvetleaf [17]. The inhibition at 11210 g/ha with Yellow nutsedge [19] was 0%.
`Cn1nc(-c2cc(F)c(Cl)cc2Cl)c(Cl)c1C(F)(F)F` [Compound 84]: the inhibition at 11210 g/ha in the test on Annual bluegrass [1] was determined as 100%; in the test with Barnyardgrass [2] it was 100%; with Cocklebur [3], 80%; with Downy Brome [4] it was 100%; with Indian Mustard [20], 100%; with Morningglory [5], 90%. Besides, the inhibition at 11210 g/ha was 100% in the test with Seedling johnsongrass [6]; 100% in the test on Velvetleaf [7]; 100% in the test on Wild buckwheat [8]; 30% with Yellow nutsedge [9]; 10% with Annual bluegrass [10]; 10% in the test on Barnyardgrass [11]. Also, the inhibition at 11210 g/ha in the test on Cocklebur [12] came to 20%; in the test on Downy Brome [13] it was 0%; in the test on Indian Mustard [14] it was 0%; in the test on Morningglory [15] (setting [21]), 50%; in the test on Seedling johnsongrass [16], 40%; in the test on Velvetleaf [17], 100%. For the same compound, in the test with Yellow nutsedge [19], the inhibition at 11210 g/ha is 10%.
On to `Cn1nc(-c2cc(OCC(=O)OC(C)(C)C)c(Cl)cc2F)c(Cl)c1C(F)(F)F` [Compound 294, (2-Chloro-5-(4-chloro-1-methyl-5-(trifluoromethyl)-1H-pyrazol-3-yl)-4-fluorophenoxy)acetic acid, 1,1-dimethylethyl ester], for which the inhibition at 1120 g/ha in the test with Annual bluegrass [1] (1.12 kg/ha) stood at 0%; in the test with Barnyardgrass [2] (1.12 kg/ha), 20%; in the test on Cocklebur [3] (1.12 kg/ha), 80%; with Downy Brome [4] (1.12 kg/ha), 20%; in the test on Indian Mustard [20] (1.12 kg/ha) it was 0%; in the test on Morningglory [5] (1.12 kg/ha), 70%. Besides, the inhibition at 1120 g/ha was found to be 20% in the test with Seedling johnsongrass [6] (1.12 kg/ha); 70% in the test on Velvetleaf [7] (1.12 kg/ha); 90% in the test on Wild buckwheat [8] (1.12 kg/ha); 0% in the test with Yellow nutsedge [9] (1.12 kg/ha); 80% in the test with Morningglory [15] (Ipomoea, 1.12 kg/ha, read-out: % plant inhibition (Mogl)); 0% in the test with Yellow nutsedge [19] (1.12 kg/ha). Also, the “% plant inhibition (Cobu)” value with Cocklebur [12] (1.12 kg/ha) is 50%. Also, the “% plant inhibition (Mogl)” value with Morningglory [15] (1.12 kg/ha) worked out at 90%. Also, in the test with Velvetleaf [17] (1.12 kg/ha), the “% plant inhibition (Vele)” value was 50% and 80%.
`Cn1nc(-c2cc(NC(=O)C3(Br)CC3)c(Cl)cc2F)c(Cl)c1C(F)(F)F` [Compound 500, cyclopropanecarboxamide,-1-bromo-N-[2-chloro-5-[4-chloro-1-methyl-5-(trifluoromethyl)-1H-pyrazol-3-yl]-4-fluorophenyl]-]: the inhibition at 11210 g/ha came to 10% in the test on Annual bluegrass [1]; 30% in the test with Barnyardgrass [2]; 40% with Cocklebur [3]; 80% with Downy Brome [4]; 30% in the test with Indian Mustard [20]; 60% with Morningglory [5]. The inhibition at 11210 g/ha in the test with Seedling johnsongrass [6] is 70%; in the test with Velvetleaf [7] it was 70%; in the test on Wild buckwheat [8] it was 90%; in the test on Yellow nutsedge [9] it was 0%; in the test with Annual bluegrass [10], 50%; with Seedling johnsongrass [16] it was 90%. In addition, the inhibition at 11210 g/ha with Yellow nutsedge [19] was 0%.
